Experimental data published in patent US11524014B2, “Pharmaceutical formulations and systems for delivery of an androgenic agent and an aromatase inhibitor with sustained multi-phasic release profiles and methods of use” (Havah Therapeutics Pty Ltd., priority 2019, dated 2022).
Several values for one entry are separate records, joined by “and”; a condition that tells them apart may be missing. Equal values may be shown once. Read-outs that look alike come from different tables or passages of the source.

Legend:
[1] = system: IL-6; conditions: female breast cells treated with testosterone (Guhl, 2012); cited from earlier work
[2] = clinical; conditions: female, human, in vivo; for half-life: t1/2, arithmetic mean (terminal half-life)
Description: Pre-menopausal women with high Mammographic Breast Density (MBD) was selected for the study. Following the successful screening, participants came to the Wellend Clinic South Australia for dosing. The participants were to be dosed while in the luteal phase of their menstrual cycle to avoid the highly changing hormonal environment of the follicular phase. Following insertion of the implant, PK blood sampling was carried out for a duration of three months. Briefly, samples were taken repeatedly on the day of dosing, daily during the first week, weekly for the next four weeks and every second week during the last eight weeks, for a total sampling period of three months. After assessments had been completed on the last day of assessments, Day 85, the trial concluded.
The sampling schedule was revised with the addition of one blood sample (at 6 hours post-dose), and no adjustment of the timing of existing time points. The duration of sampling was not extended.
In summary, following dosing on Day 1, blood samples were taken pre-dose (within one hour of dosing) and at 1, 2, 4, 6, 8 and 12 hours. Participants returned for a blood sample to be taken at 9 am in the morning on Days 2, 3, 4, 5, 8, 15, 22, 29, 43, 57, 71 and 85.
A total of 11 subjects were dosed and included in the safety analysis set. Eleven subjects were included in the PK analysis set. Women were aged between 35 and 55 years of age, Body Mass Index (BMI) range of 20-30 kg/m^2.

[3] = Population pharmacokinetic modelling of anastrozole from the Example 1 trial; assay type: in vivo, human
Description: Data in these figures are presented as mean+/−standard deviation. […] The percentage change from baseline was calculated for the average volume and plotted against time in months. […] In FIG. 8A, the data on the X axis is plotted in time (hours) after transplantation. In FIG. 8B the X axis is on a log scale. In FIGS. 8A-B, the open circles equal observed data, the black line equals median PK profile, and the dashed dark grey line equals lower limit of quantification (0.1 ng/mL).
One and two compartment models were fitted to the data. Several absorption models were tested such as first and zero order, mixed order, as well as transit compartments. Model selection was performed on the basis of statistical criteria (objective function) as well as visual inspection of diagnostic plots. […] Between-subject variability (BSV) was included on apparent clearance (CL/F), apparent volume of distribution for the central compartment (Vc/F) and the first-order absorption rate constant (KA). A proportional error model was used to describe residual unexplained variability (RUV).

[4] = oral anastrozole; cited from earlier work
[5] = two-compartment model with dual input, T+Ai implant, n=11

Question: With `C[C@]12CC[C@H]3[C@@H](CCC4=CC(=O)CC[C@@]43C)[C@@H]1CC[C@@H]2O` [Testosterone, testosterone] as the compound, how does the “time of second lower serum peak” value (serum testosterone after single s.c. T+Ai implant) read?
Answer: Its value is 2-3 weeks.

Question: What about the “Cmax, arithmetic mean” value (single s.c. T+Ai implant 80 mg/4 mg, women, n=11, anastrozole in plasma, testosterone in serum) of the same compound?
Answer: The value was 4.08 ng/mL.

Question: What about the “reduction of IL-6 levels” value [1] of the same compound?
Answer: Its value is 53%.

Question: What about the Tmax ([2]; sc) of the same compound?
Answer: Its Tmax is 8 h.

Question: What about the Cmax ([2]; sc, Cmax, arithmetic mean, single s.c. T+Ai implant 80 mg/4 mg, women, n=11, anastrozole in plasma, testosterone in serum) of the same compound?
Answer: The Cmax was 4.1 ng/mL.

Question: What about the half-life ([2]; sc, single s.c. T+Ai implant 80 mg/4 mg, women, n=11, anastrozole in plasma, testosterone in serum) of the same compound?
Answer: Its half-life is 1030 h.

Question: Which serum level measurability (serum dihydrotestosterone after single s.c. T+Ai implant) does the source give for `C[C@]12CCC(=O)C[C@@H]1CC[C@@H]1[C@@H]2CC[C@]2(C)[C@@H](O)CC[C@@H]12` [dihydrotestosterone, 5 alpha dihydrotestosterone] here?
Answer: The serum level measurability was “not measurable in most samples”.

Question: And the Tmax ([2]; Tmax post-dose, serum dihydrotestosterone, participants with measurable maximal values)?
Answer: Its Tmax is 48 to 72 h.

Question: For `CC(C)(C#N)c1cc(Cn2cncn2)cc(C(C)(C)C#N)c1` [Anastrozole, 2,2′-[5-(1H-1,2,4-triazol-1-ylmethyl)-1,3-phenylene]bis(2-methylpropanenitrile)], which “Fraction absorbed via second input” value ([3]; fixed in the model (FIX)) is on record?
Answer: The value was 0.5 FIX.

Question: What about the “Absorbtion rate constant (ka) first input, estimated value (% RSE)” value [3, 5] of the same compound?
Answer: The value was 0.119 (20.6) /hr.

Question: What about the “Absorbtion rate constant (ka) second input, estimated value (% RSE)” value [3, 5] of the same compound?
Answer: The value was 0.148 (20.5) /hr.

Question: And the “Apparent central volume of distribution (Vc/F), estimated value (% RSE)” value [3, 5]?
Answer: Its value is 672 (3.0) L.

Question: What about the “Apparent clearance (CL/F), estimated value (% RSE)” value [3, 5] of the same compound?
Answer: The value was 1.77 L/hr and 1.77 (6.9) L/hr.

Question: What about the “Apparent peripheral volume of distribution (Vp/F), estimated value (% RSE)” value [3, 5] of the same compound?
Answer: Its value is 106 (29.8) L.

Question: And the “Inter-compartmental clearance (Q/F), estimated value (% RSE)” value [3, 5]?
Answer: The value was 0.97 (57.7) L/hr.

Question: And the “Lagged time for second input, estimated value (% RSE)” value [3, 5]?
Answer: The value was 3.77 (9.7) h.

Question: And the “t1/2, arithmetic mean (terminal half-life)” value (female, human, in vivo, sc)?
Answer: Its value is 326 h.

Question: And the “CL/F, arithmetic mean (NCA)” value (human, in vivo, sc)?
Answer: Its value is 1.88 L/h.

Question: And the half-life [4]?
Answer: The half-life was 48 h.

Question: And the concentration at 12 weeks [2]?
Answer: Its concentration at 12 weeks is < 0.1 ng/mL.

Question: And the Tmax ([2]; sc, Tmax, median, single s.c. T+Ai implant 80 mg/4 mg, women, n=11, anastrozole in plasma, testosterone in serum)?
Answer: The Tmax was 48.6 h.

Question: What about the Tmax ([2]; sc, median Tmax post-dose, plasma anastrozole after single s.c. T+Ai implant, range 1-3 days) of the same compound?
Answer: The Tmax was 48 h.

Question: And the half-life ([2]; sc)?
Answer: Its half-life is 336 h.
